Reference: patent US8020343B2, “Enhanced shelf life and on seed stabilization of liquid bacterium inoculants” (Becker Underwood Inc., priority 2004, dated 2011)

Columns and labels:
B. japonicum strain 532C = experiment: Sorbitol versus trehalose: on-seed rhizobial viability on soybean seed; format: cell-based; conditions: trehalose 30% w/v vs sorbitol 20% w/v; seeds at 18-20° C., time zero and 7 days, FIG. 13
Procedure: An experiment was run to determine whether sorbitol or trehalose is better suited for application to soybean seeds with B japonicum. The following steps were performed: • 1. B. japonicum strain 532C was grown for 5 days in 1.5×Bj2 (a soybean fermentation medium) at 30° C. and 165 rpm. • 2. Either sorbitol (20% w/v) or trehalose (30% w/v) was added to the culture, and the cultures were maintained for 5 days at 30° C., 165 rpm. • 3. 2.7 ml/kg of either sorbitol or trehalose amended culture was applied to soybean seed. Seeds were evenly coated. • 4. Seeds were stored at 18-20° C. • 5. On-seed rhizobial viability was monitored at time zero and after 7 days

Rhizobium leguminosarum = experiment: Sugar/sugar alcohol study: bacteria counts on pea seeds; format: cell-based; conditions: 15° C., sorbitol vs sucrose vs trehalose
Procedure: Partially desiccated inoculant products were prepared by first growing Rhizobium leguminosarum in a Rhizobium leguminosarum bv. viceae culture medium. Two different culture mediums were used, 1×R1 and 1.5×R1, which are pea and lentil fermentation medium. The 1.5×R1 has 50% more media components than 1×R1. After 3 days culture growth, a sugar or a sugar alcohol was aseptically added to the culture. The amount of sugar or sugar alcohol added to the culture is shown in final concentration (weight/volume) in Table 9 below. The culture was then allowed a 2 day conditioning phase during which the culture continued to grow thereby creating the partially desiccated inoculant product. The partially desiccated inoculant product was then applied to pea seeds at a rate of 3.1 L inoculant product/1136 kg seed. The seeds were then mixed in a bag by shaking to evenly distribute the inoculant product on the seeds. The seeds were then stored at 15° C.
The bacteria counts were performed in a similar manner as the previous examples. That is, 50 seeds were put in 100 ml of phosphate buffer in a dilution bottle. The bottle was shaken for 5 minutes. 10 fold serial dilutions were made and 0.1 ml of proper dilution was spread onto nutrient medium plates. The viable bacteria cells on seed were calculated based on the colony numbers on the plates.

SMILES | suitability for application to B japonicum on soybean seeds (on-seed rhizobial viability) (B. japonicum strain 532C) | extension of on-seed shelf life of Rhizobium leguminosarum, ranking of sugars/sugar alcohols tested (Rhizobium leguminosarum)
OC[C@H]1O[C@H](O[C@H]2O[C@H](CO)[C@@H](O)[C@H](O)[C@H]2O)[C@H](O)[C@@H](O)[C@@H]1O [trehalose] | better suited than sorbitol | 
OC[C@@H](O)[C@@H](O)[C@H](O)[C@@H](O)CO [sorbitol] |  | top performing
